For three compounds, EC50 results are on record in PubChem BioAssay AID588373 (NMMLSC, 2011).

pEC50: −log10 of the molar value.

Chain of Cell division control protein 42 homolog (Homo sapiens) (P60953 whole entry, looked up): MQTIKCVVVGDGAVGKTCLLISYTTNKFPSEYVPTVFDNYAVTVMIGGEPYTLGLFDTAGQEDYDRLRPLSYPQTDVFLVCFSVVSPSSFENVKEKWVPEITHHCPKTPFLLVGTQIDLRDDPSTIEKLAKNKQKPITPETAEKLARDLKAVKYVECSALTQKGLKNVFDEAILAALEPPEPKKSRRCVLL

The assay concerns the target Cell division control protein 42 homolog (Homo sapiens) (UniProt P60953). In words: Cdc42 activated mutant GTP-binding inhibitors, SAR follow-up, biochemical, probe extension, bead-based multiplex flow cytometry, round 1 (AID 588373). The conditions noted are these: Bodipy-FL-GTP binding, EDTA. For orientation: In flow cytometry, cells or beads pass a laser one at a time.
Regarding `NS(=O)(=O)c1ccc(N2N=C(c3ccccc3)CC2c2ccccc2)cc1` (stereo not drawn), the negative logarithm of the EC50 (pEC50) (usually the EC50 on a negative log10 scale, so that one unit is a factor of ten) was 5.21.

Consider `COc1ccc(C2CC(c3ccccc3)=NN2c2ccc(S(N)(=O)=O)cc2)cc1` (stereo not drawn), for which the pEC50 is 5.72.

For `O=C(C#Cc1ccccc1)c1cccc([N+](=O)[O-])c1`, the pEC50 is 6.43.
